Assay results taken from patent US20090192298A1, “Through-bond energy transfer cassettes, systems and methods” (priority 2007, published 2009).

Key:
Assay type in all cases: physicochemical
[1] = Spectral Properties of 9 in CH2Cl2, Table 3; set-up: emax: unit not given beside the values; conditions: for Ff: Rhodamine 101 in EtOH as the standard
[2] = Spectral properties (absorbance, fluorescence, quantum yield) of sulfonated BODIPY dyes 6, Table 1; conditions: for F: Fluorescein in 0.1M NaOH as standard
Text: A fluorophore, according to some embodiments of the disclosure, may have a high extinction coefficient and/or a sharp, intense fluorescence emission (e.g., rivaling that of the BODIPY dyes). A fluorophore may also have single molecule detection capacity.

[3] = Fluorescence properties of water-soluble Nile Blue derivatives in aqueous media; conditions: for quantum yields versus I and J: pH 7.4 in aqueous media; for fwmh less than reported water-soluble Nile Blue derivatives: phosphate buffer pH 7.4, versus I and J
Text: A dye may include, in some embodiments, one or more of Nile Blue derivatives 17-20 (FIG. 11).

[4] = Water solubility of through-bond energy transfer cassettes
[5] = 0.1M lithium phosphate buffer (pH = 7.4)

`CCC(C)Nc1c2ccc(=[N+]3CCCCC3)cc-2oc2cc(N3CCCCC3)ccc12.O=S(=O)([O-])C(F)(F)F` (racemic) [9c] showed an If [1] of 537 nm, an Imax [1] of 456 nm and an emax [1] of 52423. For the same molecule, the “fwhm (full width at half-maximum height)” value [1] was 52 nm and the Ff [1] was 0.85 ± 0.01.

For `CC1=[N+]2C(=Cc3c(C)cc(C)n3[B-]2(F)F)C(=O)N1C` [6a], the Imax abs ([2]; solvent MeOH) was 477 nm, the Imax emiss ([2]; solvent MeOH) was 485 nm and the e ([2]; solvent MeOH) was 57286 M⁻¹ cm⁻¹. The fwhm ([2]; solvent MeOH) was 19 nm and the F ([2]; solvent MeOH) was 0.89 ± 0.01.

`Cc1cc(C)n2c1C=C1C(=O)N(C)C(c3ccccc3)=[N+]1[B-]2(F)F` [6b] showed an Imax abs ([2]; solvent MeOH) of 490 nm, an Imax emiss ([2]; solvent MeOH) of 521 nm and an e ([2]; solvent MeOH) of 58684 M⁻¹ cm⁻¹. The fwhm ([2]; solvent MeOH) was 46 nm and the F ([2]; solvent MeOH) was 0.87 ± 0.01.

`Cc1cc(C)n2c1C=C1C(=O)N(C)C(c3ccc(I)cc3)=[N+]1[B-]2(F)F` [6c] showed an Imax abs ([2]; solvent MeOH) of 492 nm, an Imax emiss ([2]; solvent MeOH) of 532 nm and an e ([2]; solvent MeOH) of 57303 M⁻¹ cm⁻¹. For the same molecule, the fwhm ([2]; solvent MeOH) was 54 nm and the F ([2]; solvent MeOH) was 0.86 ± 0.02.

Molecule `COc1ccc(C2=[N+]3C(=Cc4c(C)cc(C)n4[B-]3(F)F)C(=O)N2C)cc1` [6d] has an Imax abs ([2]; solvent MeOH) of 493 nm, an Imax emiss ([2]; solvent MeOH) of 521 nm and an e ([2]; solvent MeOH) of 51269 M⁻¹ cm⁻¹. For the same molecule, the fwhm ([2]; solvent MeOH) was 38 nm and the F ([2]; solvent MeOH) was 0.85 ± 0.03.

In the case of `Cc1cc(C)n2c1C=C1C(=O)NC(c3ccccc3)=[N+]1[B-]2(F)F` [6e], the Imax abs ([2]; solvent MeOH) is reported as 495 nm, the Imax emiss ([2]; solvent MeOH) is reported as 531 nm and the e ([2]; solvent MeOH) is reported as 37867 M⁻¹ cm⁻¹. For the same molecule, the fwhm ([2]; solvent MeOH) was 48 nm and the F ([2]; solvent MeOH) was 0.80 ± 0.01.

`Cc1cc(C)n2c1C=C1C(=O)N(C)C(c3ccc([N+](=O)[O-])cc3)=[N+]1[B-]2(F)F` [6f] gave an Imax abs ([2]; solvent Hexanes) of 498 nm, an Imax emiss ([2]; solvent Hexanes) of 587 nm and a fwhm ([2]; solvent Hexanes) of 53 nm. For the same molecule, the F ([2]; solvent Hexanes) was 0.53 ± 0.01, the Imax abs ([2]; solvent MeOH) was 492 nm and the Imax emiss ([2]; solvent MeOH) was 598 nm. The e ([2]; solvent MeOH) was 44003 M⁻¹ cm⁻¹, the fwhm ([2]; solvent MeOH) was 120 nm and the F ([2]; solvent MeOH) was 0.0004.

For `Cc1c(S(=O)(=O)[O-])c(C)n2c1C=C1C(=O)N(C)C(c3ccc(I)cc3)=[N+]1[B-]2(F)F.[Na+]` [6g], the Imax abs [2, 5] was 481 nm, the Imax emiss [2, 5] was 518 nm and the e [2, 5] was 46461 M⁻¹ cm⁻¹. For the same molecule, the fwhm [2, 5] was 50 nm, the F [2, 5] was 0.87 ± 0.01 and the Imax abs ([2]; solvent MeOH) was 488 nm. It also gave an Imax emiss ([2]; solvent MeOH) of 531 nm, an e ([2]; solvent MeOH) of 48132 M⁻¹ cm⁻¹ and a fwhm ([2]; solvent MeOH) of 53 nm. The F ([2]; solvent MeOH) was 0.88 ± 0.01.

`Cc1c(S(=O)(=O)O)c(C)n2c1C=C1C(=O)N(C)C(c3ccc(C#CCCCC(=O)O)cc3)=[N+]1[B-]2(F)F` [6h] showed an Imax abs [2, 5] of 482 nm, an Imax emiss [2, 5] of 526 nm and an e [2, 5] of 34766 M⁻¹ cm⁻¹. For the same molecule, the fwhm [2, 5] was 56 nm, the F [2, 5] was 0.82 ± 0.01 and the Imax abs ([2]; solvent MeOH) was 488 nm. The Imax emiss ([2]; solvent MeOH) was 538 nm, the e ([2]; solvent MeOH) was 35024 M⁻¹ cm⁻¹ and the fwhm ([2]; solvent MeOH) was 58 nm. It also gave an F ([2]; solvent MeOH) of 0.84 ± 0.01.

In the case of `O=S(=O)([O-])C(F)(F)F.c1cc2c(N3CCCCC3)c3ccc(=[N+]4CCCCC4)cc-3oc2cc1N1CCCCC1` [9a], the If [1] is reported as 562 nm, the Imax [1] is reported as 491 nm and the emax [1] is reported as 60409. For the same molecule, the “fwhm (full width at half-maximum height)” value [1] was 55 nm and the Ff [1] was 0.14 ± 0.01.

`CCN(CC)c1c2ccc(=[N+]3CCCCC3)cc-2oc2cc(N3CCCCC3)ccc12.O=S(=O)([O-])C(F)(F)F` [9b] gave an If [1] of 558 nm, an Imax [1] of 499 nm and an emax [1] of 50978. The “fwhm (full width at half-maximum height)” value [1] was 41 nm and the Ff [1] was 0.11 ± 0.02.

In the case of `CC(Nc1c2ccc(=[N+]3CCCCC3)cc-2oc2cc(N3CCCCC3)ccc12)C(=O)OC(C)(C)C.O=S(=O)([O-])C(F)(F)F` (centres unmarked) [9d], the If [1] is reported as 544 nm, the Imax [1] is reported as 462 nm and the emax [1] is reported as 62044. For the same molecule, the “fwhm (full width at half-maximum height)” value [1] was 52 nm and the Ff [1] was 0.90 ± 0.02.

With `O=S(=O)([O-])C(F)(F)F.c1ccc(CSc2c3ccc(=[N+]4CCCCC4)cc-3oc3cc(N4CCCCC4)ccc23)cc1` [9e] the If [1] was 619 nm, the Imax [1] was 598 nm and the emax [1] was 82617. For the same molecule, the “fwhm (full width at half-maximum height)” value [1] was 38 nm and the Ff [1] was 0.79 ± 0.02.

`COC(=O)C1CCN(c2ccc3c(N4CCCCC4)c4ccc(=[N+]5CCC(C(=O)OC)CC5)cc-4oc3c2)CC1.O=S(=O)([O-])C(F)(F)F` (centres unmarked) [9f] showed an If [1] of 552 nm, an Imax [1] of 482 nm and an emax [1] of 54908. The “fwhm (full width at half-maximum height)” value [1] was 47 nm and the Ff [1] was 0.02 ± 0.001.

For `CCN(CCCS(=O)(=O)O)c1ccc2nc3c4cc(O)ccc4c(=NCCCS(=O)(=O)O)cc-3oc2c1.Cl` [compound 17], the “quantum yields versus I and J” value [3] was “improved quantum yields” and the “fwmh less than reported water-soluble Nile Blue derivatives” value [3] was 20 nm.

In the case of `Cl.O=C(O)CCN(CCC(=O)O)c1ccc2nc3c4cc(O)ccc4c(=NCCCS(=O)(=O)O)cc-3oc2c1` [compound 18], the “quantum yields versus I and J” value [3] is reported as “improved quantum yields” and the “fwmh less than reported water-soluble Nile Blue derivatives” value [3] is reported as 20 nm.

With `COc1ccccc1C1=[N+]2C(=C(c3ccc(-c4cn(-c5ccc(C6=C7C(C)=C(S(=O)(=O)[O-])C(C)=[N+]7[B-](F)(F)n7c(C)c(S(=O)(=O)[O-])c(C)c76)cc5)nn4)cc3OCC(=O)O)c3ccc(-c4ccccc4OC)n3[B-]2(F)F)C=C1.[Na+].[Na+]` [compound 22] the water solubility [4] was “water soluble”.
